From ChEMBL document CHEMBL1147371, “Les Chimanines, Nouvelles Quinoleines Substituees en 2, Isolees d'Une Plante Bolivienne Antiparasitaire: Galipea longiflora” (1993)
≈ marks a conversion by molar mass, not a printed value.

Tests used:
[1] = test system: Leishmania braziliensis; assay: Antileishmanial activity against Leishmania braziliensis 2903; format: functional
[2] = test system: Trypanosoma cruzi; assay: Antitrypanosomal activity against Trypanosoma cruzi Tulahuen; format: functional

Row | IC90 [1] | IC90 [2] | Structure (SMILES)
1 | 50 µg/mL (≈ 292 µM) | 50 µg/mL (≈ 292 µM) | CCCc1ccc2ccccc2n1
2 | 25 µg/mL (≈ 148 µM) | 25 µg/mL (≈ 148 µM) | C/C=C/c1ccc2ccccc2n1 [CHIMANINE B]
3 | 25 µg/mL (≈ 135 µM) | 50 µg/mL (≈ 270 µM) | C[C@H]1O[C@@H]1c1ccc2ccccc2n1 (relative stereo) [CHIMANINE D]
4 | 100 µg/mL (≈ 487 µM) | 100 µg/mL (≈ 487 µM) | c1ccc(-c2ccc3ccccc3n2)cc1 [2-PHENYLQUINOLINE]
5 | 100 µg/mL (≈ 502 µM) | 100 µg/mL (≈ 502 µM) | CCCCCc1ccc2ccccc2n1

Further lines, the molecule ahead of its results:

Row | Structure (SMILES) | IC90 [1] | IC90 [2]
6 | COc1cc(-c2ccccc2)nc2ccccc12 | 50 µg/mL (≈ 213 µM) | 100 µg/mL (≈ 425 µM)
7 | CCCCCc1cc(OC)c2ccccc2n1 | 100 µg/mL (≈ 436 µM) | 100 µg/mL (≈ 436 µM)
8 | N=C(N)c1ccc(OCCCCCOc2ccc(C(=N)N)cc2)cc1 [PENTAMIDINE] | 1 µg/mL (≈ 2.94 µM) | 
9 | CCCc1cc(OC)c2ccccc2n1 [CHIMANINE A] | 100 µg/mL (≈ 497 µM) | 100 µg/mL (≈ 497 µM)
10 | O=C(Cn1ccnc1[N+](=O)[O-])NCc1ccccc1 [BENZNIDAZOLE] |  | 50 µg/mL (≈ 192 µM)
11 | COc1ccc(CCc2ccc3ccccc3n2)cc1OC | 100 µg/mL (≈ 341 µM) | 100 µg/mL (≈ 341 µM)
12 | c1ccc2nc(CCc3ccc4c(c3)OCO4)ccc2c1 | 100 µg/mL (≈ 361 µM) | 100 µg/mL (≈ 361 µM)
13 | COc1cc(CCc2ccc3c(c2)OCO3)nc2ccccc12 [CUSPARINE] | 100 µg/mL (≈ 325 µM) | 100 µg/mL (≈ 325 µM)
14 | COc1ccc2c(OC)c3ccoc3nc2c1OC [SKIMMIANINE] | 100 µg/mL (≈ 386 µM) | 100 µg/mL (≈ 386 µM)
15 | CC1CS(=O)(=O)CCN1/N=C/c1ccc([N+](=O)[O-])o1 (configuration not stated) [NIFURTIMOX] |  | 25 µg/mL (≈ 87 µM)
